Measurements as given in US20160136138A1, “DRUG FOR TREATMENT OF NONALCOHOLIC FATTY LIVER DISEASE” (KOWA COMPANY, LTD., priority 2013, published 2016).

Assays:
[1] = system: KK-A^y mice fed with an MCD diet; test: NASH model using KK-A^y mice fed with methionine-choline-deficient diet; format: in vivo; details: Compound A 0.25 mg/kg mixed in MCD diet (0.00026%), 16 weeks; scale 0 to 3
Procedure: Effects on experimental animals, KK-A^y mice fed with a methionine-choline-deficient diet (MCD diet), which are known to develop fatty liver, a characteristic symptom of NASH (Nakano S. et al., Hepatol Res., 38(10), 1026-39, 2008) were examined.
As in Example 1, this experiment was conducted using (R)-2-[3-[[N-(benzoxazol-2-yl)-N-3-(4-methoxyphenoxy)propyl ]aminomethyl]phenoxy]butyric acid (Compound A), which is disclosed as Example 85 in Patent Document 1 listed above.
Male KK-A^y mice (KK-A^y/TaJc1, CLEA Japan, Inc.) were used in the experiment. Beginning at around 12 weeks of age, the mice were freely fed with an MCD diet for 16 weeks to develop NASH. • 2) Grouping:
The mice were divided into a normal diet group, a control group (fed with an MCD diet), a Compound A 0.25 mg/kg administration group, and a bezafibrate 60 mg/kg administration group in such a way that there was no difference in weight between the groups. • 3) Drug administration:
The doses were mixed in the feed. The control group was fed with an MCD diet containing no drug. […]
After the administration was completed, the livers were removed from the mice under pentobarbital sodium (50 mg/kg) anesthesia. […] Depending on the grade, the fatty liver was scored on a scale of 0 to 3 based on the following criteria. […]

[2] = system: LDL receptor knockout mice NASH model; test: Western diet-fed LDL receptor knockout mice NASH model; format: in vivo; details: 12 weeks, vs control
Excerpt: Effects on Western diet-fed LDL receptor knockout mice (Non Patent Document 4), which are known to develop fatty liver and hepatic inflammation, characteristic symptoms of NASH were examined. […] Male LDL receptor knockout mice ([…], Jackson Laboratories) were used in the experiment. Beginning at around 8 weeks of age, the mice were freely fed with Teklad Custom Research Diet (TD.88137, Harlan Teklad) as a Western diet for 13 weeks to develop NASH. • 2) Grouping: After 1 week of the Western diet feeding, the mice were subjected to blood sampling and weighing. The mice were divided into a control group (0.5% methyl cellulose aqueous solution), a Compound A 0.5 mg/kg administration group, and a fenofibrate 100 mg/kg administration group in such a way that there was no difference in plasma lipid level and weight between the groups. […] The administration period was 12 weeks. After the administration was completed, the livers were removed from the mice under pentobarbital sodium (50 mg/kg) anesthesia. The livers were fixed with paraformaldehyde and then subjected to the preparation of hematoxylin-eosin stained samples and immunostained samples for CD68 detection. In a blind study setting, using the hematoxylin-eosin stained samples, ballooning of hepatocytes was scored based on the following criteria (Kleiner et al. Hepatology 41, 1313-21, 2005). No balloon cells: 0 Few balloon cells: 1 Many balloon cells or ballooning: 2 The CD68 positive area in liver was measured with an image analysis system (WinROOF) in a blind study. The statistical analysis was performed using Stat […] Information Technology Inc.) (Ver. 1.1). Dunnett's test (N=14-15) was used for comparison with the control group, in which a significant difference with p<0.05 is indicated by the symbol *, and a significant difference with p<0.001 is indicated by the symbol ***.

## CC[C@@H](Oc1cccc(CN(CCCOc2ccc(OC)cc2)c2nc3ccccc3o2)c1)C(=O)O [Compound A, (R)-2-[3-[[N-(benzoxazol-2-yl)-N-3-(4-methoxyphenoxy)propyl]aminomethyl]phenoxy]butyric acid]
[1]
  steatosis score: 0
[2]; Compound A 0.5 mg/kg orally once a day
  CD68 positive area in liver, reduction rate: 81%
[2]; Compound A 0.5 mg/kg orally once a day, Dunnett's test
  ballooning of hepatocytes (score): significant suppression of ballooning of hepatocytes

## CC(C)OC(=O)C(C)(C)Oc1ccc(C(=O)c2ccc(Cl)cc2)cc1 [fenofibrate, reference compound]
[2]; fenofibrate 100 mg/kg orally once a day
  CD68 positive area in liver, reduction rate: 73%
